From PMC8589628, “Characterization and Antimicrobial Studies of Iturin-Like and Bogorol-Like Lipopeptides From Brevibacillus spp. Strains GI9 and SKDU10” (Frontiers in Microbiology, 2021) come the findings set out here.

Data set [1] concerns V. cholerae MTCC 3904. The data set is described as follows: Time kill assay. The settings on record: in PBS, CFU count. The format is cell-based. The procedure: (§1) Killing kinetics of purified compounds was performed using cells of S. aureus MTCC 1430, V. cholerae MTCC 3904, and C. albicans MTCC 183. Test strains were grown to obtain OD between 0.2 and 0.3 (OD 600 nm), centrifuged, and washed thrice with sterile PBS. Pellets were suspended in PBS and treated with different concentrations of active compounds. Cells after treatment were washed, resuspended, and serially diluted cell suspensions were plated on NA plates. After overnight incubation at 37°C, CFU were recorded ([Singh et al., 2021]).

Data set [2] relates to A. brassicicola MTCC 2102. As to the kind of experiment: Protection of tomato slices and grapes from fungal spores. The settings on record: 500 μl of 2 mg/ml lipopeptide, then 50 μl spore suspension (10^7 conidia per ml); 25°C, 4 days; three replicates. Set-up: species or system Alternaria brassicicola. The procedure:
The surface of the tomatoes and grapes was sterilized with 5% NaOCl for 5 min and rinsed three times with plenty of sterile water. After sterilization, tomatoes were cut into slices and wounds of 3 mm were inflicted with a sterile scalpel on the surface of the grapes. Tomato slices and grapes were divided into four groups. Contents of group 1 were treated with water only (negative control). Contents of group 2 were treated with 50 μl of a spore suspension (spores 10^7 conidia per ml) of A. brassicicola MTCC 2102 (positive control without treatment). Contents of group 3 were first treated with 500 μl of 2 mg/ml solution of purified lipopeptides separately and after adsorption of lipopeptides, fungal spores were added. Contents of the fourth group were treated with purified lipopeptides only without addition of fungal spores. Tomato slices and grapes from all four groups were incubated at 25°C under controlled humidity conditions for 4 days and observed. Each treatment was performed with three biological and technical replicates.

Data set [3] concerns Lipase. The data set is described as follows: Effect of hydrolytic enzymes on activity (well-diffusion assay). The class given is in vitro ADME. As to conditions: 6h/ 37 °C. On the technique in general: Agar diffusion results depend on both activity and mobility in agar.
Data set [4] in a line: Collapse drop assay (CDA). The format is physicochemical. As to conditions: 5 μl of 10 μg/ml stock on mineral oil droplet, observed after 1 min. The procedure: Collapse Drop Assay (CDA) was performed as mentioned earlier ([Sharma et al., 2020]). To a well of 96 well microtiter plate, 2 μl mineral oil was added and equilibrated at 37°C for 24 h. Purified lipopeptide (5 μl of 10 μg/ml stock) was applied to the top of oil droplet and its shape was observed after 1 min with a magnifying glass for collapse and spread due to reduction in surface tension. Water and triton X-100 served as controls ([Youssef et al., 2004]). To determine critical micelle concentration (CMC), different concentrations of purified lipopeptides were prepared and surface tension was measured on a tensiometer (KRUSS K10T, Germany) at room temperature. The values for CMC were estimated by plotting surface tension as a function of concentration of lipopeptides. A point of intersection was located between the pre and post CMC data plot. The mean value of triplicate experiments was used to increase the accuracy. Concentrations ranging from 0.1 to 1000 μg/ml were used to determine surface tension on a tensiometer.

Data set [5] concerns V. cholerae MTCC 3904. As to the kind of experiment: TEM of treated cells. The class given is cell-based. The settings on record: V. cholerae MTCC 3904, 1X MIC, 30 min, 37°C. The protocol:
Effect of antimicrobial compounds on cell membrane of test organisms was determined by transmission electron microscopy (TEM). Test strains, S. aureus MTCC 1430, V. cholerae MTCC 3904, and C. albicans MTCC 183 were cultured to mid-log phase, washed, and re-suspended in 1X PBS (OD 600 nm 0.2). The cell suspensions were incubated (37°C) with 1X MIC of purified antimicrobial compounds for 30 min. Cells after treatment were centrifuged, washed twice with PBS. For TEM, cells of S. aureus MTCC 1430 and V. cholerae MTCC 3904 were subjected to negative stain with 0.1% (w/v) sodium phosphotungstate (PTA, Sigma, United States) in water for 1 min, on a carbon-coated copper grid with 300 mesh (Polyscience, United States) and observed under transmission electron microscope (JEOL JEM 2100, United States) ([Raje et al., 2006]). For SEM, C. albicans MTCC 183 cells were immobilized on poly L-lysine glazed glass slides and incubated at 4°C for 2 h. Cells were fixed using Karnovsky’s fixative and serially dehydrated with gradient of ethanol, freeze dried, and platinum coated. ZEISS EV040 (United States) scanning electron microscope was employed to photograph the cells ([Raje et al., 2006]). Spores of A. brassicicola MTCC 2102 were treated with 2X MIC of lipopeptides for 2 h and observed under phase-contrast microscope (Nickon H600L, Japan). […]

The test system of data set [6] is Trypsin. As to the kind of experiment: Effect of hydrolytic enzymes on activity (well-diffusion assay). The format is in vitro ADME. The settings on record: for Tolerance to trypsin treatment: 37°C, 6 h; for Residual activity: Trypsin, 6h/ 37 °C, 50 mM phosphate buffer (pH 7.0), enzyme 0.1, 1.0 and 5.0 mg/ml used, well-diffusion assay. The procedure:
(§2) Sensitivities of purified antimicrobial compounds to temperature, pH, and hydrolytic enzymes were confirmed by performing well-diffusion assay. pH stability was determined by adjusting the pH of aliquots of purified antimicrobial compounds from 2.0 to 12.0 (using 10 mM HCl or NaOH) and incubating at room temperature for 4 h. The residual activity was measured after neutralizing the sample to pH 7.0. To determine temperature susceptibility, antimicrobial compounds were incubated at different temperatures ranging from 37 to 100°C for 1 h and 121°C for 15 min, and then residual antimicrobial activity was determined after cooling the samples to room temperature. Similarly, proteolytic enzymes such as trypsin and proteinase K were used at three different concentrations (0.1, 1.0, and 5.0 mg/ml) to ensure their effect on the activity of antimicrobial compounds. The enzyme solutions were prepared in 50 mM phosphate buffer (pH 7.0). All reactions were performed at 37°C for 6 h followed by deactivation of the enzyme by heating the solution in boiling water for 5 min before performing the activity assay.

The test system of data set [7] is Chymotrypsin. The data set is described as above. The format is in vitro ADME. As to conditions: 6h/ 37 °C. The protocol:
as §2

The target in data set [8] is Proteinase K (Parengyodontium album, UniProt P06873). The data set is described as above. The class given is in vitro ADME. The settings on record: for Tolerance to proteinase K treatment: 37°C, 6 h; for Residual activity: Proteinase K, 6h/ 37 °C, 50 mM phosphate buffer (pH 7.0), enzyme 0.1, 1.0 and 5.0 mg/ml used, well-diffusion assay. The protocol:
as §2

Data set [9] deals with C. albicans MTCC 183. As to the kind of experiment: Time kill assay. The settings on record: for Time to complete killing: C. albicans MTCC 183, 5X MIC, in PBS, CFU count. The class given is cell-based, Candida albicans. The protocol:
as §1

Peptide text beside a SMILES is read from it. * marks the point of attachment. X1 = CC(C)CCCCCCCCCCCCC(=O)* Some results are limits rather than exact numbers.

Sequence of Proteinase K (P06873 106-384): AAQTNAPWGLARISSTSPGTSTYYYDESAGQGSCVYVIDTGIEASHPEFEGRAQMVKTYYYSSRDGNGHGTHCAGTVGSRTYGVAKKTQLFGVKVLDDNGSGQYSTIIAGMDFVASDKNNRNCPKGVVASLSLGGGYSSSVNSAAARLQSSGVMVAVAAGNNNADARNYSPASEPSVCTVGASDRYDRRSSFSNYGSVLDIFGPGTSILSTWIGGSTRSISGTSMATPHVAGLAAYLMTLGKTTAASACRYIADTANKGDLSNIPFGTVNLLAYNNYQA

In the case of `CC(C)CCCCCCCCCCCCC(=O)N[C@H](C(=O)NCC(=O)N[C@@H](C)C(=O)N[C@@H](CO)C(=O)N[C@@H](Cc1c[nH]cn1)C(=O)N[C@@H](CCC(N)=O)C(=O)N[C@@H](CCC(N)=O)C(=O)O)[C@@H](C)O` [ILL] (X1-TGASHQQ-OH; N-terminus assumed), the “Time to complete reduction in the load” value in data set [1] (V. cholerae MTCC 3904, 1X MIC) is not above 60 min; in data set [1] (V. cholerae MTCC 3904, 2X MIC), not above 60 min. In addition, the “Fungal growth on the surface of treated tomato and grape slices inoculated with spores” value in [2] is “no fungal growth”. For the same compound, the Residual activity in [3] is given as 100%; in data set [6] it was 94.1%; in [7], 91.1%; in data set [8], 82.3%. Also, the “Collapse drop assay reaction” value in data set [4] is reported as “positive reaction”. For the same compound, the “Effect on cells (TEM)” value in data set [5] was “lysis with accumulation of debris on cell surface, altered morphology, and shrinkage”. Moreover, the “Tolerance to trypsin treatment” value in data set [6] was “resistant”. Moreover, the “Tolerance to proteinase K treatment” value in data set [8] is recorded as “resistant”. For the same compound, the Reduction in growth in [9] (C. albicans MTCC 183, 1X MIC, 4 h) is 2 log. Further, the “Time to complete killing” value in data set [9] is reported as 4 h.
Turning to “Dhb-Tyr-Orn-Ile-Val-Val-Lys-Val-Leu-Asp-Val-Glu [BLL, bogorol like lipopeptide purified from Brevibacillus sp. strain SKDU10; 12 amino acids and C17 hydroxy fatty acid side chain]”, the “Time to complete reduction in the load” value in data set [1] (V. cholerae MTCC 3904, 1X MIC) is recorded as not above 30 min; in data set [1] (V. cholerae MTCC 3904, 2X MIC), not above 30 min. The “Fungal growth on the surface of treated tomato and grape slices inoculated with spores” value in data set [2] is recorded as “no fungal growth”. The Residual activity in data set [3] is recorded as 100%; in data set [6] it was 91.6%; in data set [7], 94.4%; in data set [8], 77.7%. Further, in data set [4], the “Collapse drop assay reaction” value is reported as “positive reaction”. In addition, the “Effect on cells (TEM)” value in data set [5] is “irregularities in structure with rupturing of cell wall and lysis”. In addition, the “Tolerance to trypsin treatment” value in data set [6] is “resistant”. In data set [8], the “Tolerance to proteinase K treatment” value is “resistant”. Besides, the “Complete killing of cells within 4 h” value in [9] (C. albicans MTCC 183, 1X MIC) was “not observed”; in data set [9] (C. albicans MTCC 183, 2X MIC) it was “not observed”. Besides, the “Time to complete killing” value in data set [9] is recorded as not above 4 h.
